Test results as given in ChEMBL document CHEMBL4145521, “Regioselective synthesis of 3,4-diaryl-5-unsubstituted isoxazoles, analogues of natural cytostatic combretastatin A4” (Eur J Med Chem, 2018).

Columns and labels:
Format in all cases: functional
SF-539 = test: Cytotoxicity against human SF539 cells assessed as cell growth at 1 uM incubated for 48 hrs by sulforhodamine B assay relative to control; details: SF-539, 48 h, read-out: Activity
SK-MEL-5 [1] = test: Cytotoxicity against human SK-MEL-5 cells assessed as cell growth at 0.1 uM incubated for 48 hrs by sulforhodamine B assay relative to control; details: SK-MEL-5, 48 h, read-out: Activity
LOX IMVI [2] = test: Cytotoxicity against human LOXIMVI cells incubated for 48 hrs by sulforhodamine B assay
KM12 [3] = test: Cytotoxicity against human KM12 cells assessed as cell growth at 100 uM incubated for 48 hrs by sulforhodamine B assay relative to control; details: KM12, 48 h, read-out: Activity
OVCAR-3 = test: Cytotoxicity against human OVCAR3 cells assessed as cell growth at 100 uM incubated for 48 hrs by sulforhodamine B assay relative to control; details: OVCAR-3, 48 h, read-out: Activity
A549 = test: Cytotoxicity against human A549/ATCC cells assessed as cell growth at 1 uM incubated for 48 hrs by sulforhodamine B assay relative to control; details: A549, 48 h, read-out: Activity
K562 [4] = test: Cytotoxicity against human K562 cells assessed as cell growth at 1 uM incubated for 48 hrs by sulforhodamine B assay relative to control; details: K562, 48 h, read-out: Activity
MDA-MB-231 = test: Cytotoxicity against human MDA-MB-231 cells incubated for 48 hrs by sulforhodamine B assay; details: MDA-MB-231, 48 h
HOP-62 = test: Cytotoxicity against human HOP62 cells assessed as cell growth at 0.1 uM incubated for 48 hrs by sulforhodamine B assay relative to control; details: HOP-62, 48 h, read-out: Activity
KM12 [5] = test: Cytotoxicity against human KM12 cells incubated for 48 hrs by sulforhodamine B assay; details: KM12, 48 h
SNB-19 [6] = test: Cytotoxicity against human SNB19 cells assessed as cell growth at 0.01 uM incubated for 48 hrs by sulforhodamine B assay relative to control; details: SNB-19, 48 h, read-out: Activity
MOLT-4 [7] = test: Cytotoxicity against human MOLT4 cells incubated for 48 hrs by sulforhodamine B assay; details: MOLT-4, 48 h
MOLT-4 [8] = test: Cytotoxicity against human MOLT4 cells assessed as cell growth at 0.01 uM incubated for 48 hrs by sulforhodamine B assay relative to control; details: MOLT-4, 48 h, read-out: Activity
BT-549 = test: Cytotoxicity against human BT549 cells assessed as cell growth at 10 uM incubated for 48 hrs by sulforhodamine B assay relative to control; details: BT-549, 48 h, read-out: Activity
NCI-H522 = test: Cytotoxicity against human NCI-H522 cells assessed as cell growth at 100 uM incubated for 48 hrs by sulforhodamine B assay relative to control; details: NCI-H522, 48 h, read-out: Activity
OVCAR-5 = test: Cytotoxicity against human OVCAR5 cells assessed as cell growth at 0.1 uM incubated for 48 hrs by sulforhodamine B assay relative to control; details: OVCAR-5, 48 h, read-out: Activity
LOX IMVI [9] = test: Cytotoxicity against human LOXIMVI cells assessed as cell growth at 0.1 uM incubated for 48 hrs by sulforhodamine B assay relative to control; details: read-out: Activity
K562 [10] = test: Cytotoxicity against human K562 cells incubated for 48 hrs by sulforhodamine B assay; details: K562, 48 h
SK-MEL-5 [11] = test: Cytotoxicity against human SK-MEL-5 cells incubated for 48 hrs by sulforhodamine B assay; details: SK-MEL-5, 48 h
UO-31 = test: Cytotoxicity against human UO31 cells incubated for 48 hrs by sulforhodamine B assay; details: UO-31, 48 h
NCI-H460 = test: Cytotoxicity against human NCI-H460 cells assessed as cell growth at 1 uM incubated for 48 hrs by sulforhodamine B assay relative to control; details: NCI-H460, 48 h, read-out: Activity
SNB-19 [12] = test: Cytotoxicity against human SNB19 cells incubated for 48 hrs by sulforhodamine B assay; details: SNB-19, 48 h
MDA-MB-468 = test: Cytotoxicity against human MDA-MB-468 cells assessed as cell growth at 0.1 uM incubated for 48 hrs by sulforhodamine B assay relative to control; details: MDA-MB-468, 48 h, read-out: Activity
HT-29 = test: Cytotoxicity against human HT-29 cells incubated for 48 hrs by sulforhodamine B assay; details: HT-29, 48 h
ACHN = test: Cytotoxicity against human ACHN cells incubated for 48 hrs by sulforhodamine B assay
NCI/ADR-RES = test: Cytotoxicity against human NCI/ADR-RES cells assessed as cell growth at 100 uM incubated for 48 hrs by sulforhodamine B assay relative to control; details: read-out: Activity
U-251 = test: Cytotoxicity against human U251 cells assessed as cell growth at 0.01 uM incubated for 48 hrs by sulforhodamine B assay relative to control; details: U-251, 48 h, read-out: Activity
[13] = read-out: LC50 (the source's name)
[14] = read-out: pLC50 (the source's name) (converted)

`COc1ccc(-c2nocc2-c2cc(OC)c(OC)c(OC)c2)cc1` was tested, and the growth at 1 µM (SF-539) was 1%, the growth at 0.1 µM (SK-MEL-5 [1]) was 41% and the GI50 (LOX IMVI [2]; read-out: GI50) was 0.254 µM. The LC50 (concentration killing 50% of cells) (LOX IMVI [2]; read-out: LC50) was > 100 µM, the TGI (LOX IMVI [2]; read-out: TGI) was 55.5 µM and the GI50 (LOX IMVI [2]; read-out: pGI50 (converted)) was 0.257 µM. For the same compound, the LC50 (concentration killing 50% of cells) (LOX IMVI [2]; read-out: pLC50 (converted)) was > 100 µM, the TGI (LOX IMVI [2]; read-out: pTGI (converted)) was 55 µM and the growth at 100 µM (KM12 [3]) was -45%. The growth at 100 µM (OVCAR-3) was -21%, the growth at 1 µM (A549) was 28% and the growth at 1 µM (K562 [4]) was 14%. For the same compound, the GI50 (MDA-MB-231; read-out: GI50) was 0.45 µM, the CC50 (MDA-MB-231; [13]) was > 100 µM and the TGI (MDA-MB-231; read-out: TGI) was 34.2 µM. For the same compound, the GI50 (MDA-MB-231; read-out: pGI50 (converted)) was 0.447 µM, the CC50 (MDA-MB-231; [14]) was > 100 µM and the TGI (MDA-MB-231; read-out: pTGI (converted)) was 33.9 µM. The growth at 0.1 µM (HOP-62) was 58%, the GI50 (KM12 [5]; read-out: GI50) was 0.0433 µM and the CC50 (KM12 [5]; [13]) was > 100 µM. For the same compound, the TGI (KM12 [5]; read-out: TGI) was 13.1 µM, the GI50 (KM12 [5]; read-out: pGI50 (converted)) was 0.0437 µM and the CC50 (KM12 [5]; [14]) was > 100 µM. For the same compound, the TGI (KM12 [5]; read-out: pTGI (converted)) was 13.2 µM, the growth at 0.01 µM (SNB-19 [6]) was 98% and the GI50 (MOLT-4 [7]; read-out: GI50) was 0.708 µM. The CC50 (MOLT-4 [7]; [13]) was > 100 µM, the TGI (MOLT-4 [7]; read-out: TGI) was > 100 µM and the GI50 (MOLT-4 [7]; read-out: pGI50 (converted)) was 0.708 µM. The CC50 (MOLT-4 [7]; [14]) was > 100 µM, the TGI (MOLT-4 [7]; read-out: pTGI) was > 100 µM and the growth at 0.01 µM (MOLT-4 [8]) was 99%. It also gave a growth at 10 µM (BT-549) of 9%, a growth at 100 µM (NCI-H522) of -48% and a growth at 0.1 µM (OVCAR-5) of 86%. For the same compound, the growth at 0.1 µM (LOX IMVI [9]) was 55%, the GI50 (K562 [10]; read-out: GI50) was 0.0471 µM and the LC50 (50% lethal concentration) (K562 [10]; read-out: LC50) was > 100 µM. For the same compound, the TGI (K562 [10]; read-out: TGI) was > 100 µM, the GI50 (K562 [10]; read-out: pGI50 (converted)) was 0.0468 µM and the LC50 (50% lethal concentration) (K562 [10]; read-out: pLC50 (converted)) was > 100 µM. The TGI (K562 [10]; read-out: pTGI) was > 100 µM, the GI50 (SK-MEL-5 [11]; read-out: GI50) was 0.0715 µM and the LC50 (concentration killing 50% of cells) (SK-MEL-5 [11]; read-out: LC50) was 27.7 µM. For the same compound, the TGI (SK-MEL-5 [11]; read-out: TGI) was 5.25 µM, the GI50 (SK-MEL-5 [11]; read-out: pGI50 (converted)) was 0.0708 µM and the LC50 (concentration killing 50% of cells) (SK-MEL-5 [11]; read-out: pLC50 (converted)) was 27.5 µM. For the same compound, the TGI (SK-MEL-5 [11]; read-out: pTGI) was 5.25 µM, the GI50 (UO-31; read-out: GI50) was 0.545 µM and the CC50 (UO-31; [13]) was > 100 µM. For the same compound, the TGI (UO-31; read-out: TGI) was 28.7 µM, the GI50 (UO-31; read-out: pGI50 (converted)) was 0.55 µM and the CC50 (UO-31; [14]) was > 100 µM. The TGI (UO-31; read-out: pTGI (converted)) was 28.8 µM, the growth at 1 µM (NCI-H460) was 11% and the GI50 (SNB-19 [12]; read-out: GI50) was 0.373 µM. The CC50 (SNB-19 [12]; [13]) was > 100 µM, the TGI (SNB-19 [12]; read-out: TGI) was > 100 µM and the GI50 (SNB-19 [12]; read-out: pGI50 (converted)) was 0.372 µM. For the same compound, the CC50 (SNB-19 [12]; [14]) was > 100 µM, the TGI (SNB-19 [12]; read-out: pTGI) was > 100 µM and the growth at 0.1 µM (MDA-MB-468) was 55%. The GI50 (HT-29; read-out: GI50) was 0.0365 µM, the LC50 (HT-29; read-out: LC50) was > 100 µM and the TGI (HT-29; read-out: TGI) was 12 µM. For the same compound, the GI50 (HT-29; read-out: pGI50 (converted)) was 0.0363 µM, the LC50 (HT-29; read-out: pLC50 (converted)) was > 100 µM and the TGI (HT-29; read-out: pTGI (converted)) was 12 µM. The GI50 (ACHN; read-out: GI50) was 1.19 µM, the LC50 (concentration killing 50% of cells) (ACHN; read-out: LC50) was > 100 µM and the TGI (ACHN; read-out: TGI) was 49.4 µM. For the same compound, the GI50 (ACHN; read-out: pGI50 (converted)) was 1.2 µM, the LC50 (concentration killing 50% of cells) (ACHN; read-out: pLC50 (converted)) was > 100 µM and the TGI (ACHN; read-out: pTGI (converted)) was 49 µM. For the same compound, the growth at 100 µM (NCI/ADR-RES) was -7% and the growth at 0.01 µM (U-251) was 99%.
